Data from the Kinase Knowledgebase extract (Sharma et al. 2016).

biological target: MAPK14 (human) (UniProt Q16539); assay: Inhibition of MAPK14 Kinase Activity
Sequence (Q16539 whole entry, looked up): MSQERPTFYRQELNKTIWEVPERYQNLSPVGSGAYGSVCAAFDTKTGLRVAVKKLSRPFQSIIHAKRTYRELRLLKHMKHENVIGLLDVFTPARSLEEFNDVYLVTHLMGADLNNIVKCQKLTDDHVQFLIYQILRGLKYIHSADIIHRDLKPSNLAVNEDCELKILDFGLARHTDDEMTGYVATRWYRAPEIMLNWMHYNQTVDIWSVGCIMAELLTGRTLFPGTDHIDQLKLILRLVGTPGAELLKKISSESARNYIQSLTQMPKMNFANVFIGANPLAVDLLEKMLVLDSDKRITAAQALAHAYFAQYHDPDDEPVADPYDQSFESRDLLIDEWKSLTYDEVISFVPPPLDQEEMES

| IC50 | SMILES |
| --- | --- |
| ≤ 10 µM | O=C1CCC(Oc2cccc3ccccc23)CN1c1c(Cl)ccnc1Cl (stereo unspecified) |
| ≤ 10 µM | CNc1ccc(Cl)c(N2CC(Oc3ccc(F)cc3F)CCC2=O)c1Cl (stereo unspecified) |
| ≤ 10 µM | COc1ccccc1SC1CCC(=O)N(c2c(Cl)ccnc2Cl)C1 (stereo unspecified) |
| ≤ 10 µM | Cc1cc(CN)cc(C)c1N1CC(Cc2ccc(F)cc2F)CCC1=O (stereo unspecified) |
| ≤ 10 µM | O=C1CCC(Cc2ccc(Cl)cc2Cl)CN1c1c(Cl)cccc1Cl (stereo unspecified) |
| ≤ 10 µM | Cc1cc(C)cc(SC2CCC(=O)N(C3C(Cl)CCCC3Cl)C2)c1 (stereo unspecified) |
| ≤ 10 µM | O=C1CCC(Cc2ccc(OC(F)(F)F)cc2)CN1c1c(Cl)cccc1Cl (stereo unspecified) |
| ≤ 10 µM | COC(=O)c1cc(Cl)c(N2CC(Cc3ccc(F)cc3F)CCC2=O)c(Cl)c1 (stereo unspecified) |
| ≤ 10 µM | CNc1cc(Cl)c(N2CC(Sc3ccc(F)cc3F)CCC2=O)c(Cl)n1 (stereo unspecified) |
| ≤ 10 µM | CN1CCN(C(=O)CNc2cc(Cl)c(N3CC(Cc4ccc(F)cc4F)CCC3=O)c(Cl)c2)CC1 (stereo unspecified) |
| ≤ 10 µM | O=C1SCC(Cc2ccc3ccccc3c2)CN1c1c(Cl)cccc1Cl (stereo unspecified) |
| ≤ 10 µM | Cc1ccccc1OC1CCC(=O)N(c2c(Cl)csc2Cl)C1 (stereo unspecified) |
| ≤ 10 µM | Cc1ccccc1CC1CN(C)C(=O)N(c2c(Cl)cccc2Cl)C1 (stereo unspecified) |
| ≤ 10 µM | O=C1CCC(Oc2ccc3ccccc3c2)CN1C1C(Cl)CCCC1Cl (stereo unspecified) |
| ≤ 10 µM | CN1CC(=O)N(c2c(Cl)cccc2Cl)CC1Cc1ccc(F)cc1F (stereo unspecified) |
| ≤ 10 µM | O=C1CCC(CCc2ccccc2)CN1c1c(Cl)cccc1Cl (stereo unspecified) |
| ≤ 10 µM | O=C1CCC(C(Cl)c2ccc(F)cc2F)CN1c1c(Cl)cccc1Cl (stereo unspecified) |
| ≤ 10 µM | O=C1CCC(Cc2ccccc2Cl)CN1c1c(Cl)cccc1Cl (stereo unspecified) |
| ≤ 10 µM | Nc1cc(Cl)c(N2CC(Oc3ccc(F)cc3F)CCC2=O)c(Cl)n1 (stereo unspecified) |
| ≤ 10 µM | Nc1cc(Cl)c(N2CC(Oc3ccc(F)cc3F)CCC2=O)c(Cl)c1 (stereo unspecified) |
| ≤ 10 µM | O=C1CCC(Cc2cccc3ccccc23)CN1c1c(Cl)cncc1Cl (stereo unspecified) |
| ≤ 10 µM | Nc1ccc(Cl)c(N2CC(Cc3ccc(F)cc3F)COC2=O)c1Cl (stereo unspecified) |
| ≤ 10 µM | O=C1SCC(Cc2cccc3ccccc23)CN1c1c(Cl)cccc1Cl (stereo unspecified) |

| IC50 | SMILES |
| --- | --- |
| ≤ 10 µM | CC(=O)Nc1ccc(CC2CCC(=O)N(c3c(Cl)cccc3Cl)C2)cc1 (stereo unspecified) |
| ≤ 10 µM | O=C(NCc1ccccc1)NCc1ccccc1CC1CCC(=O)N(c2c(Cl)cccc2Cl)C1 (stereo unspecified) |
| ≤ 10 µM | O=C1CCC(Cc2ccc3ccccc3c2)CN1c1c(Cl)ccnc1Cl (stereo unspecified) |
| ≤ 10 µM | Cc1cccc(C)c1N1CC(Cc2ccccc2OCC(=O)Nc2cc(C(C)(C)C)nn2C)CCC1=O (stereo unspecified) |
| ≤ 10 µM | O=C1CCC(Oc2ccccc2Cl)CN1c1c(Cl)ccnc1Cl (stereo unspecified) |
| ≤ 10 µM | Cc1cc2c(cc1NC(=O)NCc1ccccc1CC1CCC(=O)N(c3c(Cl)cccc3Cl)C1)C(C)(C)CCC2 (stereo unspecified) |
| ≤ 10 µM | CS(=O)(=O)N1CCC(Nc2cc(Cl)c(N3CC(Cc4ccc(F)cc4F)CCC3=O)c(Cl)c2)CC1 (stereo unspecified) |
| ≤ 10 µM | O=C1CCC(Sc2ccccc2F)CN1c1c(Cl)csc1Cl (stereo unspecified) |
| ≤ 10 µM | CC(=O)Nc1cc(Cl)c(N2CC(Oc3ccc(F)cc3F)CCC2=O)c(Cl)n1 (stereo unspecified) |
| ≤ 10 µM | O=C(c1ccc(F)cc1F)C1CCC(=O)N(c2c(Cl)cccc2Cl)C1 (stereo unspecified) |
| ≤ 10 µM | CC(=O)Nc1ccc(Cl)c(N2CC(Cc3ccc(F)cc3F)CCC2=O)c1Cl (stereo unspecified) |
| ≤ 10 µM | O=C1CCC(Cc2ccccc2F)CN1c1c(Cl)ccnc1Cl (stereo unspecified) |
| ≤ 10 µM | O=C1NCC(Cc2ccccc2Cl)CN1c1c(Cl)cccc1Cl (stereo unspecified) |
| ≤ 10 µM | Cc1cccc(C)c1N1CC(Cc2ccccc2OCC(=O)O)CCC1=O (stereo unspecified) |
| ≤ 10 µM | O=C1CCC(Oc2cccc3ccccc23)CN1c1c(Cl)cncc1Cl (stereo unspecified) |
| ≤ 10 µM | Nc1cc(Cl)c(N2CC(Cc3ccccc3)CCC2=O)c(Cl)c1 (stereo unspecified) |
| ≤ 10 µM | CC(O)(c1ccc(F)cc1F)C1CCC(=O)N(c2c(Cl)cccc2Cl)C1 (stereo unspecified) |
| ≤ 10 µM | CC(=O)Nc1ncc(Cl)c(N2CC(Oc3ccc(F)cc3F)CCC2=O)c1Cl (stereo unspecified) |
| ≤ 10 µM | O=C1SCC(Cc2ccc(F)cc2)CN1c1c(Cl)cccc1Cl (stereo unspecified) |
| ≤ 10 µM | O=C(CNc1cc(Cl)c(N2CC(Cc3ccc(F)cc3F)CCC2=O)c(Cl)c1)NO (stereo unspecified) |
| ≤ 10 µM | CC(=O)Nc1ccc(Cl)c(N2CC(Cc3ccc(F)cc3F)CN(C)C2=O)c1Cl (stereo unspecified) |
| ≤ 10 µM | Cc1ccc(CC2CCC(=O)N(c3c(Cl)ccnc3Cl)C2)cc1 (stereo unspecified) |
| ≤ 10 µM | O=C(NCc1ccccc1CC1CCC(=O)N(c2c(Cl)cccc2Cl)C1)Nc1ccccc1C(F)(F)F (stereo unspecified) |

| IC50 | SMILES |
| --- | --- |
| ≤ 10 µM | CNc1sc(Cl)c(N2CC(Oc3ccc(F)cc3F)CCC2=O)c1Cl (stereo unspecified) |
| ≤ 10 µM | O=C(Cc1ccccc1)Nc1cc(Cl)c(N2CC(Sc3ccc(F)cc3F)CCC2=O)c(Cl)c1 (stereo unspecified) |
| ≤ 10 µM | CC(=O)Nc1sc(Cl)c(N2CC(Cc3ccc(F)cc3F)CCC2=O)c1Cl (stereo unspecified) |
| ≤ 10 µM | Cc1ccccc1CC1CCC(=O)N(c2c(Cl)cccc2Cl)C1 (stereo unspecified) |
| ≤ 10 µM | O=C1OCC(Cc2ccccc2)CN1c1c(Cl)cccc1Cl (stereo unspecified) |
| ≤ 10 µM | CC(=O)Nc1ccc(Cl)c(N2CC(Cc3ccc(F)cc3F)OCC2=O)c1Cl (stereo unspecified) |
| ≤ 10 µM | COc1ccccc1SC1CCC(=O)N(c2c(Cl)cccc2Cl)C1 (stereo unspecified) |
| ≤ 10 µM | O=C1OCC(Cc2ccc(F)cc2F)CN1c1c(Cl)ccc(O)c1Cl (stereo unspecified) |
| ≤ 10 µM | O=C1CCC(Sc2ccc(F)cc2F)CN1C1C(Cl)CC(CO)CC1Cl (stereo unspecified) |
| ≤ 10 µM | CC(=O)Nc1ccc(Cl)c(N2CC(Cc3ccc(F)cc3F)CSC2=O)c1Cl (stereo unspecified) |
| ≤ 10 µM | O=C1CCC(Sc2ccc(F)cc2)CN1c1c(Cl)ccnc1Cl (stereo unspecified) |
| ≤ 10 µM | O=C1CCC(Oc2ccccc2F)CN1c1c(Cl)cccc1Cl (stereo unspecified) |
| ≤ 10 µM | CC(C)(C)OC(=O)N(CC(=O)O)c1cc(Cl)c(N2CC(Cc3ccc(F)cc3F)CCC2=O)c(Cl)c1 (stereo unspecified) |
| ≤ 10 µM | O=C1NCC(Cc2ccc(F)cc2F)CN1c1c(Cl)ccc(CO)c1Cl (stereo unspecified) |
| ≤ 10 µM | CC(=O)N1CCC(Nc2cc(Cl)c(N3CC(Cc4ccc(F)cc4F)CCC3=O)c(Cl)c2)CC1 (stereo unspecified) |
| ≤ 10 µM | NC1CC(Cl)C(N2CC(Sc3ccc(F)cc3F)CCC2=O)C(Cl)C1 (stereo unspecified) |
| ≤ 10 µM | O=C(Cc1ccccc1)Nc1sc(Cl)c(N2CC(Cc3ccc(F)cc3F)CCC2=O)c1Cl (stereo unspecified) |
| ≤ 10 µM | CC(=O)Nc1ccc(Cl)c(N2CC(Cc3ccc(F)cc3F)SCC2=O)c1Cl (stereo unspecified) |
| ≤ 10 µM | CC(=O)Nc1cc(Cl)c(N2CC(Cc3ccc(F)cc3F)CNC2=O)c(Cl)c1 (stereo unspecified) |
| ≤ 10 µM | COC(=O)c1ccccc1CC1CCC(=O)N(c2c(C)cccc2C)C1 (stereo unspecified) |
| ≤ 10 µM | Cc1ccccc1CC1CNC(=O)N(c2c(Cl)cccc2Cl)C1 (stereo unspecified) |
| ≤ 10 µM | NC(=O)CNc1cc(Cl)c(N2CC(Cc3ccc(F)cc3F)CCC2=O)c(Cl)c1 (stereo unspecified) |
| ≤ 10 µM | O=C1CCC(Oc2ccc(Cl)cc2Cl)CN1c1c(Cl)cncc1Cl (stereo unspecified) |

| IC50 | SMILES |
| --- | --- |
| ≤ 10 µM | O=C1CCC(Cc2ccccc2)CN1c1c(Cl)cncc1Cl (stereo unspecified) |
| ≤ 10 µM | O=C1CCC(C(O)c2ccc(F)cc2F)CN1c1c(Cl)cccc1Cl (stereo unspecified) |
| ≤ 10 µM | O=C1CCC(Oc2ccc(F)cc2)CN1c1c(Cl)ccnc1Cl (stereo unspecified) |
| ≤ 10 µM | O=C1CCC(Oc2ccc(F)cc2F)CN1c1c(Cl)cc(CO)nc1Cl (stereo unspecified) |
| ≤ 10 µM | CNc1cc(Cl)c(N2CC(Oc3ccc(F)cc3F)CCC2=O)c(Cl)c1 (stereo unspecified) |
| ≤ 10 µM | Cc1cc(C(=O)NCCN(C)C)cc(C)c1N1CC(Cc2ccc(F)cc2F)CCC1=O (stereo unspecified) |
| ≤ 10 µM | Cc1cc(C(=O)O)cc(C)c1N1CC(Cc2ccc(F)cc2F)CNC1=O (stereo unspecified) |
| ≤ 10 µM | O=C1CCC(Sc2ccc(F)cc2)CN1C1C(Cl)CCCC1Cl (stereo unspecified) |
| ≤ 10 µM | CC(=O)Nc1cc(Cl)c(N2CC(Cc3ccc(F)cc3F)CCC2=O)c(Cl)c1 (stereo unspecified) |
| ≤ 10 µM | O=C1CCC(Cc2ccc(F)cc2F)CN1c1c(Cl)cc(N2CCNCC2)cc1Cl (stereo unspecified) |
| ≤ 10 µM | O=C1CCC(Sc2ccc(F)cc2F)CN1C1C(Cl)CCC(O)C1Cl (stereo unspecified) |
| ≤ 10 µM | CC(=O)NC1CCC(Cl)C(N2CC(Sc3ccc(F)cc3F)CCC2=O)C1Cl (stereo unspecified) |
| ≤ 10 µM | O=C1CCC(Sc2ccc3ccccc3c2)CN1c1c(Cl)ccnc1Cl (stereo unspecified) |
| ≤ 10 µM | O=C1CCC(Cc2ccc3ccccc3c2)CN1c1c(Cl)cncc1Cl (stereo unspecified) |
| ≤ 10 µM | O=C1CCC(Oc2ccccc2F)CN1c1c(Cl)ccnc1Cl (stereo unspecified) |
| ≤ 10 µM | COc1ccccc1CC1CCC(=O)N(c2c(Cl)ccnc2Cl)C1 (stereo unspecified) |
| ≤ 10 µM | O=C1CCC(Cc2ccc(Cl)cc2Cl)CN1C1C(Cl)CCCC1Cl (stereo unspecified) |
| ≤ 10 µM | O=C1CCC(Cc2cc(F)cc(F)c2)CN1c1c(Cl)cccc1Cl (stereo unspecified) |
| ≤ 10 µM | CNC(=O)CCc1cc(Cl)c(N2CC(Cc3ccc(F)cc3F)CCC2=O)c(Cl)c1 (stereo unspecified) |
| ≤ 10 µM | COC(=O)Nc1cc(Cl)c(N2CC(Cc3ccc(F)cc3F)CCC2=O)c(Cl)c1 (stereo unspecified) |
| ≤ 10 µM | O=C(CNc1cc(Cl)c(N2CC(Cc3ccc(F)cc3F)CCC2=O)c(Cl)c1)NOCc1ccccc1 (stereo unspecified) |
| ≤ 10 µM | O=C1CSC(Cc2ccc(F)cc2F)CN1c1c(Cl)cc(O)cc1Cl (stereo unspecified) |
| ≤ 10 µM | Cc1ccc(OC2CCC(=O)N(c3c(Cl)csc3Cl)C2)c(C)c1 (stereo unspecified) |

| IC50 | SMILES |
| --- | --- |
| ≤ 10 µM | CC(C)(C)OC(=O)N[C@@H](COCc1ccccc1)C(=O)Nc1cc(Cl)c(N2CC(Cc3ccc(F)cc3F)CCC2=O)c(Cl)c1 (stereo partly specified) |
| ≤ 10 µM | COc1ccccc1SC1CCC(=O)N(c2c(Cl)csc2Cl)C1 (stereo unspecified) |
| ≤ 10 µM | O=C1COC(Cc2ccc(F)cc2F)CN1c1c(Cl)ccc(O)c1Cl (stereo unspecified) |
| ≤ 10 µM | Cc1cc(C)cc(CC2COC(=O)N(c3c(Cl)cccc3Cl)C2)c1 (stereo unspecified) |
| ≤ 10 µM | O=C1CCC(Sc2ccc3ccccc3c2)CN1c1c(Cl)cccc1Cl (stereo unspecified) |
| ≤ 10 µM | O=C1CCC(Cc2ccc(F)cc2F)CN1c1c(Cl)cc(NCCn2ccnc2)cc1Cl (stereo unspecified) |
| ≤ 10 µM | O=C1CCC(Sc2cc(F)cc(F)c2)CN1c1c(Cl)ccnc1Cl (stereo unspecified) |
| ≤ 10 µM | Cc1ccccc1OC1CCC(=O)N(c2c(Cl)cncc2Cl)C1 (stereo unspecified) |
| ≤ 10 µM | O=C1CCC(Cc2ccc(F)cc2F)CN1c1c(Cl)ncc(CO)c1Cl (stereo unspecified) |
| ≤ 10 µM | Cc1ccc(OC2CCC(=O)N(c3c(Cl)ccnc3Cl)C2)cc1 (stereo unspecified) |
| ≤ 10 µM | O=C1CSC(Cc2ccc(F)cc2F)CN1c1c(Cl)ccc(CO)c1Cl (stereo unspecified) |
| ≤ 10 µM | O=C1CCC(Cc2ccc(F)cc2F)CN1c1c(Cl)cc(NCc2ccccc2O)cc1Cl (stereo unspecified) |
| ≤ 10 µM | C[C@@H]1C[C@H](Cc2ccc(F)cc2F)CN(c2c(Cl)cc(NC(=O)OC(C)(C)C)cc2Cl)C1=O |
| ≤ 10 µM | Cc1ccc(CC2CSC(=O)N(c3c(Cl)cccc3Cl)C2)cc1 (stereo unspecified) |
| ≤ 10 µM | O=C1CCC(Cc2ccc(Cl)cc2)CN1c1c(Cl)cccc1Cl (stereo unspecified) |
| ≤ 10 µM | O=C1OCCN1c1cc(Cl)c(N2CC(Cc3ccc(F)cc3F)CCC2=O)c(Cl)c1 (stereo unspecified) |
| ≤ 10 µM | O=C(Cc1ccccc1)Nc1ccc(Cl)c(N2CC(Sc3ccc(F)cc3F)CCC2=O)c1Cl (stereo unspecified) |
| ≤ 10 µM | O=C1CCC(Sc2ccccc2)CN1c1c(Cl)cccc1Cl (stereo unspecified) |
| ≤ 10 µM | O=C(Cc1ccccc1)Nc1cnc(Cl)c(N2CC(Oc3ccc(F)cc3F)CCC2=O)c1Cl (stereo unspecified) |
